# Calls of active or inactive are those of the source.
# Experiments:
# Protein RecA = target: T1, Protein RecA (Mycobacterium tuberculosis, UniProt P9WHJ3); test: Fluorescence Cell-Free Homogeneous Dose Retest to Identify Inhibitors of RecA-Intein Splicing Activity. [Related pubchem assays (depositor defined):AID2097, AID2223, AID489010, AID492950]; format: functional
# T1 sequence (P9WHJ3 whole entry): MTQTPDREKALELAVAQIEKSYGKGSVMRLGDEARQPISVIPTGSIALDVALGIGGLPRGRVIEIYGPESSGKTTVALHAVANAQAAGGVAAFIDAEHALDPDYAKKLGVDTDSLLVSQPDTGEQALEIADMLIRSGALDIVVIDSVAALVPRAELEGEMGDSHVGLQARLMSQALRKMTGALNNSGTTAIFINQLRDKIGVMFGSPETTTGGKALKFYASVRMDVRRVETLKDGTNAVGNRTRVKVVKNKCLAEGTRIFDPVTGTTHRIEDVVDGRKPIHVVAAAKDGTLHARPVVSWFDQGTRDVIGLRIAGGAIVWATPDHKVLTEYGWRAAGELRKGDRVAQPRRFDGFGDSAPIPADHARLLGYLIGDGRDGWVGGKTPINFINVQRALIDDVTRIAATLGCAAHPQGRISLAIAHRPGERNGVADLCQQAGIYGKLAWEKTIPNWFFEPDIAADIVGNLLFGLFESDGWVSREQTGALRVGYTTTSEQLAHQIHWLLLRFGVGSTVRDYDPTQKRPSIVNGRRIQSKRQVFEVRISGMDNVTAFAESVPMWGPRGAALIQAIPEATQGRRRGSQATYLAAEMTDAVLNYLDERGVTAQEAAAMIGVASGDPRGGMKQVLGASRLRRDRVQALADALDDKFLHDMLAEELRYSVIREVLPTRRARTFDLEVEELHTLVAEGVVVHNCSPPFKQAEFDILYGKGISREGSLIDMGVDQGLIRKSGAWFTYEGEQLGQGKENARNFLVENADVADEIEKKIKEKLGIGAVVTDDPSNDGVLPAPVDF
# [1] = target: Tyrosyl-DNA phosphodiesterase 2 (Homo sapiens, UniProt O95551); test: human TDP2 enzyme inhibitors, dose response, biochemical, epi absorbance, IC50 (AID 743297)
# [2] = target: Serine/threonine-protein kinase PLK4 (Homo sapiens, UniProt O00444); format: functional;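 note: PLK4 measured as one member of a kinome-wide kinase profiling panel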
# [3] = target: Rho-associated protein kinase 2 (Homo sapiens, UniProt O75116); format: functional
# [4] = target: Proto-oncogene tyrosine-protein kinase ROS (Homo sapiens, UniProt P08922); format: functional;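 note: ROS1 tested as one member of a kinome-wide kinase panel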
# Insulin receptor = Insulin receptor (Homo sapiens, UniProt P06213); format: functional;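 note: insulin receptor kinase tested as one member of a kinome-wide kinase panel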
# [5] = target: Proto-oncogene tyrosine-protein kinase Src (Homo sapiens, UniProt P12931); format: functional;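 note: SRC entry within a kinome-wide kinase profiling panel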
# [6] = target: Serine/threonine-protein kinase pim-2 (Homo sapiens, UniProt Q9P1W9); format: functional;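 note: value comes from a broad kinase panel profiling study in which PIM2 was one of the panel members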
# [7] = target: 3-phosphoinositide-dependent protein kinase 1 (Homo sapiens, UniProt O15530); format: functional;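 note: value comes from the Navigating the Kinome panel, PDPK1 member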
# [8] = target: Serine/threonine-protein kinase DCLK1 (Homo sapiens, UniProt O15075); format: functional;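 note: affinity for DCLK1 (listed as DCAMKL1) measured as one member of a kinome-wide kinase profiling panel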
# [9] = target: Receptor tyrosine-protein kinase erbB-4 (Homo sapiens, UniProt Q15303); format: functional;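 note: ERBB4 member of a kinome-wide kinase profiling panel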
# [10] = target: T2, Histone-lysine N-methyltransferase NSD2 (Homo sapiens, UniProt O96028); format: biochemical
# T2 sequence (O96028 whole entry): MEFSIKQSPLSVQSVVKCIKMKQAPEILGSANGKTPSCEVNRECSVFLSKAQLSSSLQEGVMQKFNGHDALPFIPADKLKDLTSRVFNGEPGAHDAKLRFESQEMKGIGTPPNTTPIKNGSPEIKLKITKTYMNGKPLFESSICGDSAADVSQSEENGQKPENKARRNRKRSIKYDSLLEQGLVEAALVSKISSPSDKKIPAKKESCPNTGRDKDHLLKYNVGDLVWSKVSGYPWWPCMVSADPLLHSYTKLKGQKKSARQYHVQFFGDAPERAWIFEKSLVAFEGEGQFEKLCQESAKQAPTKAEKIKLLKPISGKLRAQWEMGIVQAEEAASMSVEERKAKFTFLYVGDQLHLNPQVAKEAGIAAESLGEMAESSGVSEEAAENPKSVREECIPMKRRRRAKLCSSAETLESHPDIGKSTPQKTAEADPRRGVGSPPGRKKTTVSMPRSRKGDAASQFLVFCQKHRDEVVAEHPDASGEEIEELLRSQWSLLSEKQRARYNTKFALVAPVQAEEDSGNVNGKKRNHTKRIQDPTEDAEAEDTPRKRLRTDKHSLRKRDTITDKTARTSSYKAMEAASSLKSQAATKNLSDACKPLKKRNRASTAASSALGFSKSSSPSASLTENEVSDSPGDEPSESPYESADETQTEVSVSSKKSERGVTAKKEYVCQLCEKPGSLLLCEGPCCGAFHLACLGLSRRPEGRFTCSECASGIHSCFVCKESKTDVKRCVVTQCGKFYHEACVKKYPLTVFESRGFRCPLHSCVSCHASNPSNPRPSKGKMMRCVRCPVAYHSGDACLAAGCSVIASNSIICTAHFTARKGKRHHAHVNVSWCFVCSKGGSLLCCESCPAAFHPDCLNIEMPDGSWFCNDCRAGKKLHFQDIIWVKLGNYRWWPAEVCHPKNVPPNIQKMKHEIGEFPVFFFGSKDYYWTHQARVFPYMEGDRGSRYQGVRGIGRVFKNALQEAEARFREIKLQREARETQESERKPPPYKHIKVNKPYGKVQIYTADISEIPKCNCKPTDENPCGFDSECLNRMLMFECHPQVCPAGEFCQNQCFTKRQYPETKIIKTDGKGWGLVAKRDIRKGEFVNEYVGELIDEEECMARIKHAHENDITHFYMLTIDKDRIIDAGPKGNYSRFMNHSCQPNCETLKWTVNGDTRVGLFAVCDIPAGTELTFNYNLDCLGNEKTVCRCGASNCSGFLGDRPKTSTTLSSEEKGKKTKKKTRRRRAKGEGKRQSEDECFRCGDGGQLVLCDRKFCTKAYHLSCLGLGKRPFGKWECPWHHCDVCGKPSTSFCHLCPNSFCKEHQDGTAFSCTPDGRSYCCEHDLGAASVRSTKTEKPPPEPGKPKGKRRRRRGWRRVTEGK
# Rho-associated protein kinase 2, sequence (O75116 whole entry): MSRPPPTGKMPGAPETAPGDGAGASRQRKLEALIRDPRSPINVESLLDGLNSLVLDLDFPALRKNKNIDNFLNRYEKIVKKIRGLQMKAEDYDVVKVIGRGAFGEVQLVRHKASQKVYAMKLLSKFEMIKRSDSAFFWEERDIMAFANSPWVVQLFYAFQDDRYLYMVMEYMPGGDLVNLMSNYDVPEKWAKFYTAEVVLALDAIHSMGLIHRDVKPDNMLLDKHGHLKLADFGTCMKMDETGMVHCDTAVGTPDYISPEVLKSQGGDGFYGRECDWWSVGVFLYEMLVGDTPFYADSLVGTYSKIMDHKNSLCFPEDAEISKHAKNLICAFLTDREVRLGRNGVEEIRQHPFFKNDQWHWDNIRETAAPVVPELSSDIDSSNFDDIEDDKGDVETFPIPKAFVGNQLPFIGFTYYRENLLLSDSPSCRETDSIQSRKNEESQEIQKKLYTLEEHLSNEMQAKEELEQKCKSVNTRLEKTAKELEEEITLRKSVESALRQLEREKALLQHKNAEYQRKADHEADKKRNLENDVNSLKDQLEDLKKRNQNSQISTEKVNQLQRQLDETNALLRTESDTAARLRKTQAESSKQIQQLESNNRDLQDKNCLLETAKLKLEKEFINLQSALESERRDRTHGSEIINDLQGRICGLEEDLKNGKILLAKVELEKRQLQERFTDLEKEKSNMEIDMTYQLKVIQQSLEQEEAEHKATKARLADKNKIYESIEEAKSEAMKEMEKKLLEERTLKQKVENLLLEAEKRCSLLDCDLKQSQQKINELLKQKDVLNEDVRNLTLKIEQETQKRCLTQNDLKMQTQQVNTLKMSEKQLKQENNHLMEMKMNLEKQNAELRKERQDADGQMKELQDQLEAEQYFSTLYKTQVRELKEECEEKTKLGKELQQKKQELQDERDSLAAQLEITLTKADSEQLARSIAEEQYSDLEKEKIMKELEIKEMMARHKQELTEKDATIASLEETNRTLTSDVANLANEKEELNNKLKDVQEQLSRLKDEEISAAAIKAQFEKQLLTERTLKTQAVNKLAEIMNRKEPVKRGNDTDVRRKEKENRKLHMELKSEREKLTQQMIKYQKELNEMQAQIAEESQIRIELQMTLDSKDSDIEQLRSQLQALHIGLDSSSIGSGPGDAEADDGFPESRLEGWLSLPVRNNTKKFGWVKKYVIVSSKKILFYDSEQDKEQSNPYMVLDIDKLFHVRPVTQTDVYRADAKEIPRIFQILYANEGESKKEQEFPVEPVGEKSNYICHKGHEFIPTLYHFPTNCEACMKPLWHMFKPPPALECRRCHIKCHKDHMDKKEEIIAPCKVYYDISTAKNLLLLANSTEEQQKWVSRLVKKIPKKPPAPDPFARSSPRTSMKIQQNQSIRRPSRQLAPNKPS
# 3-phosphoinositide-dependent protein kinase 1, sequence (O15530 whole entry): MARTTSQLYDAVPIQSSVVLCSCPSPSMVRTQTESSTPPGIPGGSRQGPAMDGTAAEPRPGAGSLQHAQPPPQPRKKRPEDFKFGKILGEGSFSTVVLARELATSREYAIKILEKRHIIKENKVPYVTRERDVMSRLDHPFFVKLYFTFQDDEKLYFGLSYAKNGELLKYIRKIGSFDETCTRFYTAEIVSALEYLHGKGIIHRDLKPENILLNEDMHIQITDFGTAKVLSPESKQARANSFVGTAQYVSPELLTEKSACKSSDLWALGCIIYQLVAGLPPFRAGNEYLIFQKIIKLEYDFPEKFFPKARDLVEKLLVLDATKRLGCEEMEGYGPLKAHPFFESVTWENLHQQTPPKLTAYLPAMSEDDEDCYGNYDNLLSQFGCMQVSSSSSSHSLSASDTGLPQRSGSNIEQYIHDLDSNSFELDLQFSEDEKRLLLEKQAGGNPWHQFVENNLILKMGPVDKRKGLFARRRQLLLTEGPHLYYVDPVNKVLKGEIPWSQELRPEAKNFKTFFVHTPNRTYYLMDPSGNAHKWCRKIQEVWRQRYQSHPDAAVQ
# Serine/threonine-protein kinase PLK4, sequence (O00444 whole entry): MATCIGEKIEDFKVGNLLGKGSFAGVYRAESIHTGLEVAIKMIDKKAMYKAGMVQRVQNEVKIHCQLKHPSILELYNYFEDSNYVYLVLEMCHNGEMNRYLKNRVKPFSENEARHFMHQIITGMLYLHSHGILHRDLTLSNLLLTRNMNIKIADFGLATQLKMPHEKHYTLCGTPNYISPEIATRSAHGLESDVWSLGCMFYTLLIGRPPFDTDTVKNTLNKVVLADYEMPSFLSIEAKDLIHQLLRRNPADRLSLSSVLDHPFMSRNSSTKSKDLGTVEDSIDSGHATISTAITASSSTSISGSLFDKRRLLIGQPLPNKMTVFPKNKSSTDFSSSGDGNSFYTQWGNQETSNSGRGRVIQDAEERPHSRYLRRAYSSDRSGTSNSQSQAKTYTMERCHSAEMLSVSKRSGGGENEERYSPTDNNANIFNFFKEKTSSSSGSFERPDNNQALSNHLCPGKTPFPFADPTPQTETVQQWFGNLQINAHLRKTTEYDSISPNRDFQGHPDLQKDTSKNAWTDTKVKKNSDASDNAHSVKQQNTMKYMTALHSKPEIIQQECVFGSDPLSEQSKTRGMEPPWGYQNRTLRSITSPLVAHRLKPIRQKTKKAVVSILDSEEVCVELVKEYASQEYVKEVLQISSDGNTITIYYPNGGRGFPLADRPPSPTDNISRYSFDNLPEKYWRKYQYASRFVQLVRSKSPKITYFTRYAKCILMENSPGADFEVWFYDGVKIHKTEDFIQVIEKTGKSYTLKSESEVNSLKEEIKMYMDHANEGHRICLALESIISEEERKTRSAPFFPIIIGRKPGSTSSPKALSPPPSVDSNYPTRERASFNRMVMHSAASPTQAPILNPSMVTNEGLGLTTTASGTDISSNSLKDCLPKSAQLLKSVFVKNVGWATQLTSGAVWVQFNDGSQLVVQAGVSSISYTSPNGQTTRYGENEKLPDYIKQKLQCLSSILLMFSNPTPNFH
# Insulin receptor, sequence (P06213 28-758 limits assumed): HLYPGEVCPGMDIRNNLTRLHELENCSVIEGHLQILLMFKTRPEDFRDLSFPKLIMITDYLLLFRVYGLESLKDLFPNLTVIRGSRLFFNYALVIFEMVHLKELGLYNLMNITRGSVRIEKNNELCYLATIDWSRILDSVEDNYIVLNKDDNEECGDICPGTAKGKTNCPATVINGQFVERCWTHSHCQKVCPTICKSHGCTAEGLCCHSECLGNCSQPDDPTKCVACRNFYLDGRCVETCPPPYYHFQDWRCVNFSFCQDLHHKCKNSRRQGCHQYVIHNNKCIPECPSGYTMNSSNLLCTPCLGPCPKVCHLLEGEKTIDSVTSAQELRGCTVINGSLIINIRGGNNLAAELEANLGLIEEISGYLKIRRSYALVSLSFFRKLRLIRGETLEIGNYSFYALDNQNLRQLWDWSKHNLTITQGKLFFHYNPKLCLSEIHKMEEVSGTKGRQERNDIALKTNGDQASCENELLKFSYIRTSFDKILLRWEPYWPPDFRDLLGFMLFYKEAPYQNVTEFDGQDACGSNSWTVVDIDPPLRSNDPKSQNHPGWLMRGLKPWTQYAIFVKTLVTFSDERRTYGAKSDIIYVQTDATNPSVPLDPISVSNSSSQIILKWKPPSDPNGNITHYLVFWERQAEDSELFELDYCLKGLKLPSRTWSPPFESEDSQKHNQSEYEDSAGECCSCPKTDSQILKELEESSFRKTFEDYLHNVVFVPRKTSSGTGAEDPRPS
# Insulin receptor, sequence (P06213 763-1382 limits assumed): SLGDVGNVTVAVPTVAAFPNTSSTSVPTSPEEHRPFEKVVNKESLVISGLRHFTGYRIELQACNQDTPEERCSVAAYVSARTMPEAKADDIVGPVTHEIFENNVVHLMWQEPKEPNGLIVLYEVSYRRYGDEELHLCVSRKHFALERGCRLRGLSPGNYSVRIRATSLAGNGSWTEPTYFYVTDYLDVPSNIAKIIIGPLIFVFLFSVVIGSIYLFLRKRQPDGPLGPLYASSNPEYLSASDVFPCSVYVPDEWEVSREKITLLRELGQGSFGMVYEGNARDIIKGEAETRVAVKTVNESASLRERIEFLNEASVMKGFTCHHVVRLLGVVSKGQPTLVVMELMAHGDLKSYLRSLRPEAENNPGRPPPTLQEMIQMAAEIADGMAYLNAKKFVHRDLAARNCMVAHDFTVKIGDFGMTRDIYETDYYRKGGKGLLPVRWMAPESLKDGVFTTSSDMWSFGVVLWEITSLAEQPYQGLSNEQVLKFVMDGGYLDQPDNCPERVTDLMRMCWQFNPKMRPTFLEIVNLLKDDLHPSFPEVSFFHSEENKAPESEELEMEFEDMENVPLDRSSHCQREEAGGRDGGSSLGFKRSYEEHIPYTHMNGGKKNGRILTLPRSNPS
# Serine/threonine-protein kinase pim-2, sequence (Q9P1W9 whole entry): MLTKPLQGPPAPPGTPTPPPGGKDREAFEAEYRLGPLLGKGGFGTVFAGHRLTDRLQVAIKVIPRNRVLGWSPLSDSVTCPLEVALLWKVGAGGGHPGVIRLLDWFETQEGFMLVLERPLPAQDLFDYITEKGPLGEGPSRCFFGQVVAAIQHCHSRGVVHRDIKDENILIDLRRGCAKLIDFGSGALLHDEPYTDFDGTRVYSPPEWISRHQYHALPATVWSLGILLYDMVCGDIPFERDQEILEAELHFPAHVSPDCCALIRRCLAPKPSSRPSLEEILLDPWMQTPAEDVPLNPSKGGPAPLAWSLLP
# Tyrosyl-DNA phosphodiesterase 2, sequence (O95551 whole entry): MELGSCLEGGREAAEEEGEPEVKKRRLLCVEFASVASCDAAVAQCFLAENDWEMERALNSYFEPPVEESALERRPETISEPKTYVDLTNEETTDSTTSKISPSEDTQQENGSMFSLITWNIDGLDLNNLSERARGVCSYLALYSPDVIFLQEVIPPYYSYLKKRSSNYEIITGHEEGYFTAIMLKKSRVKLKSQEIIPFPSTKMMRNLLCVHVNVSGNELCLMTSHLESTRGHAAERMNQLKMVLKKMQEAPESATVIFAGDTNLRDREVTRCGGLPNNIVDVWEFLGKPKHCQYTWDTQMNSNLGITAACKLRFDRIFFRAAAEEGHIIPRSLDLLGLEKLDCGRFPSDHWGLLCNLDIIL
smiles,measurement,setting,value
Cc1ccc(NC2=C(NCCO)C(=O)c3ccccc3C2=O)cc1,EC50,Protein RecA,11.7 µM (active)
same,IC50,[1],65.1 µM (inactive)
CN1CCC(c2c(O)cc(O)c3c(=O)cc(-c4ccccc4Cl)oc23)C(O)C1 (configuration not stated),Ki,[2],3.16 µM (active)
same,Ki,[3],> 6.31 µM (inactive)
same,Ki,[4],251 nM (active)
same,Ki,Insulin receptor,> 5.01 µM (inactive)
same,Ki,[5],> 2 µM (inactive)
same,Ki,[6],1 µM (active)
same,Ki,[7],> 3.98 µM (inactive)
same,Ki,[8],> 10 µM (inactive)
same,Ki,[9],> 3.98 µM (inactive)
CC(/C=C1\SC(=S)N(NS(=O)(=O)c2ccc(C)cc2)C1=O)=C\c1ccccc1,AC50,[10],9.98 µM (active)

# — ChEMBL document CHEMBL1201862, “PubChem BioAssay data set” (2004)
